Experimental data: patent publication US10653688B2, “6-(6-membered heteroaryl and aryl)isoquinolin-3-yl carboxamides and preparation and use thereof” (Samumed, LLC, priority 2017, dated 2020)
Where two headings read alike, the source gives them in different places.

Tests used:
[1] = test system: Tau phosphorylation at Ser396 (pSer396) in SH-SY5Y cells; assay: Tau phosphorylation at Ser396 (pSer396) cell assay, ELISA/western blot; type: cell-based, human; settings: Homo sapiens; SH-SY5Y cells, overnight (16-18 h); read-out: pSer396 Tau EC50
Description: SH-SY5Y cells (human neuroblastoma) were cultured in DMEM/F-12 medium supplemented with 15% FBS, Non-essential Amino Acid and Penicillin/Streptomycin. Two days before treatment, cells were seeded onto 96 well plates at 5×10^4 cells/well.
The above synthesized compounds were screened using the cell assay procedure to assess decrease Tau phosphorylation at Ser396 (pSer396) described below.
DMSO-resuspended compounds were dispensed to 8 wells as a serial titration from 10 μM to 4.6 nM final in medium and cells were exposed overnight (16-18 h) in a humidified incubator at 36.6c before harvest.
Cells were lysed with RIPA buffer complemented with phosphatase and protease inhibitors then lysates were spun down at 12,000 g for 10 min to remove any cellular debris. Lysates are then either directly tested for pSer396 by ELISA (Life Technology, Kit KHB7031) or loaded on NuPage Bis-Tris gels for western blot analysis. Colorimetric detection of ELISA signal is performed by Cytation3 plate reader (Biotek) and the chemiluminescence signal for HRP-linked antibodies used in western blotting is detected using a Carestream Image Station. The same pSer396 antibody is used for detection of pTau in both assays.
Blot densitometry for pSer396 and β-actin were analyzed using ImageJ (NIH) and pSer396 Tau ELISA signal was used to plot, draw the curve fitting, and determine each compounds EC50 in Prism (GraphPad).

[2] = test system: Cyclin D1 phosphorylation at Threonine 286 (pCcnD1) over total Cyclin D1 in SH-SY5Y cells; assay: phosphoCcnD1 to total CcnD1 ratio (PTT) cell-based assay, western blot; settings: Homo sapiens, 48 hours
Description: Representative compounds were screened using the cell-based assay procedure for the ratio of signal of Cyclin D1 phosphorylation at Threonine 286 (pCcnD1) over the signal of total Cyclin D1 (CcnD1) (abbreviated: phosphoCcnD1 to total CcnD1 ratio, or PTT) as described below.
SH-SY5Y cells (human neuroblastoma, Sigma, Saint-Louis, Mo.) were cultured in 1:1 DMEM/F-12 medium supplemented with 15% FBS, 1% non-essential amino acid, and 1% penicillin/streptomycin.
SH-SY5Y cells were seeded at 1.0×10^5 cells in 1 mL per well in a 24-well plate. After cell adherence was confirmed, DMSO-resuspended Samumed compounds were dispensed to eight wells as a serial dilution from 10 μM to 4.6 nM final concentration in medium, or at 1.1 μM to 4.6 nM with particularly potent compounds. Cells were exposed to Samumed compounds for 48 hours in a 37° C. incubator.
Wells of compound-treated cells were visually checked for cell death before being washed with 500 μL per well of 1×DPBS supplemented with phosphatase inhibitor diluted to 1×. Cells were then lysed with 90 μL 1×RIPA buffer supplemented with phosphatase and protease inhibitors (each diluted to a final 1×). After scraping, 60 μL of cell lysate from each sample was used to dilute 4×LDS (ThermoFisher, NP0007) and 20×XT reducing agent (Bio-Rad, 1610792), each diluted to 1× final. All samples were then denatured via boiling at 95° C. Denatured cell sample lysates were directly tested for pCcnD1 and total CcnD1 signal by Western blot techniques and analysis. Specifically, denatured lysates were directly transferred to NuPAGE™ 4-12% Bis-Tris Midi Protein Gels, 26-well gels (ThermoFisher, WG1403BOX). Gels were transferred to […] nitrocellulose membranes via iBlot™ Transfer Stack, nitrocellulose, regular size (ThermoFisher, IB301031). Membranes were blocked with 1×TBS, 5% milk (Bio-Rad, 1706404XTU) before being probed for overnight with either anti-pCcnD1 primary antibody (Cell Signaling Technology, 2978S) or anti-total CcnD1 primary antibody (Cell Signaling Technology, 3300S) diluted 1:500 in 1×TBS-0.05% Tween-20, 3% milk. After overnight incubation in primary antibodies, membranes were washed profusely with 1×TBS-0.05% Tween-20 and probed for 1 hour with secondary anti-rabbit/HRP conjugate (Cell Signaling Technology, 7074S) diluted 1:1000 in 1×TBS-0.05% Tween-20, 3% milk. After incubation in secondary antibody, membranes were washed with 1×TBS-0.05% Tween-20.
Probed and washed membranes were developed for pCcnD1 or total CcnD1 signal with SuperSignal™ West Femto Maximum Sensitivity Substrate (ThermoFisher, 34096) using the ChemoDoc-It^2 (UVP) and related GelDocIt imaging software. Blots were then stripped, blocked, stained with anti-β-actin/HRP conjugate antibody (Cell Signaling Technology, 5125S), developed, and imaged for housekeeping β-actin protein control as previously described. Densitometry was measured with ImageJ (NIH) and signal was used to plot, draw the curves fitting, and determine the EC50 values in GraphPad Prism for tested Samumed compounds.

[3] = test system: SW480 colon carcinoma cells; assay: Cell viability assay (CellTiter-Glo); type: cell-based, human; settings: Homo sapiens; for EC50: 96 h, four days, CellTiter-Glo; for inhibition at 10 µM: read-out: percent inhibition at 10 μM (given for EC50 >10 μM), 10 μM
[4] = target: recombinant DYRK1A kinase (Homo sapiens (Human), UniProt Q13627); assay: DYRK1A kinase assay (Ser/Thr 18 peptide Z-lyte, FRET)
Description: Each compound was dissolved in DMSO as a 10 mM stock and used to prepare compound source plates.
This is a non-radioactive assay using fluorescence resonance energy transfer (FRET) between coumarin and fluorescein to detect kinase activity which is represented as a ratio of coumarin emission/fluorescein emission.
The mixture was allowed to incubate with the representative compounds for one hour at room temperature. All reactions were performed in duplicate. Unphosphorylated (“0% Control”) and phosphorylated (“100% control”) forms of Ser/Thr 18 served as control reactions. Additionally, an 11-point dose-response curve of Staurosporine (luM top) was run to serve as a positive compound control.
After incubation, Development Reagent A was diluted in Development Buffer then added to the reaction and allowed to further incubate for one hour at room temperature.
Dose-response curves were generated and inhibitory concentration (IC50) values were calculated using non-linear regression curve fit in the Dotmatics' Studies Software (Bishops Stortford, UK).

[5] = test system: pT212Tau in Dyrk1a- and MAPT-overexpressing HEK293T cells; assay: Tau phosphorylation at Threonine 212 (pT212Tau) sandwich ELISA in double transfected cells; settings: Homo sapiens, HEK-293T, read-out: Thr212 EC50 (μM)
[6] = DYRK1A kinase, head says EC50, method says IC50, ATP 30 μM

Row | Structure (SMILES) | EC50 [1] | EC50 [2] | EC50 [3] | EC50 [4, 6] | EC50 [4] | EC50 [5] | inhibition at 10 µM [3]
1 | CN1CCC(C(=O)Nc2cc3cc(-c4cncc(F)c4)ccc3cn2)CC1 [Compound 19, N-(6-(5-Fluoropyridin-3-yl)isoquinolin-3-yl)-1-methylpiperidine-4-carboxamide] | 9.4 µM | 0.14 µM | > 10 µM | – | 0.01 µM | 0.205 µM | 42.8%
2 | O=C(CCN1CCOCC1)Nc1cc2cc(-c3cncc(F)c3)ccc2cn1 [Compound 23, N-(6-(5-Fluoropyridin-3-yl)isoquinolin-3-yl)-3-morpholinopropanamide] | 8.5 µM | 0.08 µM | > 10 µM | – | 0.017 µM | > 10 µM | 24.8%
3 | CN1CCC(C(=O)Nc2cc3cc(-c4cncc(C#N)c4)ccc3cn2)CC1 [Compound 32, N-(6-(5-Cyanopyridin-3-yl)isoquinolin-3-yl)-1-methylpiperidine-4-carboxamide] | – | 0.001 µM | > 10 µM | 0.057 µM | – | 0.161 µM | 8.8%
4 | COc1cncc(-c2ccc3cnc(NC(=O)C4CCN(C)CC4)cc3c2)c1 [Compound 33, N-(6-(5-Methoxypyridin-3-yl)isoquinolin-3-yl)-1-methylpiperidine-4-carboxamide] | 1.45 µM | 9.1 µM | 1.82 µM | 0.004 µM | – | 0.033 µM | –
5 | O=C(Nc1cc2cc(-c3cncc(NC4CCNCC4)n3)ccc2cn1)C1CCCCC1 [Compound 44, N-(6-(6-(piperidin-4-ylamino)pyrazin-2-yl)isoquinolin-3-yl) cyclohexanecarboxamide] | – | 0.004 µM | 0.813 µM | 0.001 µM | – | < 0.003 µM | –
6 | O=C(Nc1cc2cc(-c3cncc(CN4CCCC4)c3)ccc2cn1)C1CC1 [Compound 51, N-(6-(5-(Pyrrolidin-1-ylmethyl)pyridin-3-yl)isoquinolin-3-yl) cyclopropanecarboxamide] | 1.9 µM | 0.974 µM | 4.06 µM | 0.007 µM | – | 0.047 µM | –
7 | CC(C)CN1CCCC(C(=O)Nc2cc3cc(-c4cnccn4)ccc3cn2)CC1 (stereo not shown) [Compound 81, 1-Isobutyl-N-(6-(pyrazin-2-yl)isoquinolin-3-yl)azepane-4-carboxamide] | – | 3 µM | > 10 µM | 0.029 µM | – | 0.37 µM | 21.3%
8 | O=C(Nc1cc2cc(-c3cncc(NC4CCNCC4)n3)ccc2cn1)C1CCOCC1 [Compound 109, N-(6-(6-(Piperidin-4-ylamino)pyrazin-2-yl)isoquinolin-3-yl)tetrahydro-2H-pyran-4-carboxamide] | – | 0.412 µM | 1.22 µM | 0.002 µM | – | 0.014 µM | –
9 | CN1CCN(c2cc(C(=O)Nc3cc4cc(-c5cnc6ocnc6c5)ccc4cn3)ccn2)CC1 [Compound 132, 2-(4-Methylpiperazin-1-yl)-N-(6-(oxazolo[5,4-b]pyridin-6-yl)isoquinolin-3-yl)isonicotinamide] | – | > 10 µM | 1.51 µM | 0.014 µM | – | 6.2 µM | –
10 | Cc1cc2ncc(-c3ccc4cnc(NC(=O)c5ccnc(N6CCN(C)CC6)c5)cc4c3)cc2[nH]1 [Compound 135, N-(6-(2-Methyl-1H-pyrrolo[3,2-b]pyridin-6-yl)isoquinolin-3-yl)-2-(4-methylpiperazin-1-yl)isonicotinamide] | – | 0.037 µM | 2.37 µM | 0.015 µM | – | 3.2 µM | –
11 | COc1cncc(-c2ccc3cnc(NC(=O)CN4CCOCC4)cc3c2)c1 [Compound 147, N-(6-(5-Methoxypyridin-3-yl)isoquinolin-3-yl)-2-morpholinoacetamide] | – | 0.359 µM | > 10 µM | 0.02 µM | – | 0.147 µM | 5.3%

Continued, in another order:

Row | EC50 [1] | EC50 [2] | EC50 [3] | EC50 [4, 6] | EC50 [4] | Structure (SMILES) | EC50 [5] | inhibition at 10 µM [3]
12 | 0.798 µM | 0.276 µM | 1.6 µM | 0.002 µM | – | O=C(Nc1cc2cc(-c3cccnc3)ccc2cn1)C1CC1 [Compound 6, N-(6-(Pyridin-3-yl)isoquinolin-3-yl)cyclopropanecarboxamide] | 0.01 µM | –
13 | 0.795 µM | 0.036 µM | 3.14 µM | 0.002 µM | – | CN1CCC(C(=O)Nc2cc3cc(-c4cccnc4)ccc3cn2)CC1 [Compound 8, 1-Methyl-N-(6-(pyridin-3-yl)isoquinolin-3-yl)piperidine-4-carboxamide] | 0.019 µM | –
14 | 1.6 µM | 0.205 µM | > 10 µM | 0.007 µM | – | Cc1nccn1CC(=O)Nc1cc2cc(-c3cccnc3)ccc2cn1 [Compound 14, 2-(2-Methyl-1H-imidazol-1-yl)-N-(6-(pyridin-3-yl)isoquinolin-3-yl) acetamide] | 0.043 µM | 47.6%
15 | 1.1 µM | 0.127 µM | 6.44 µM | 0.005 µM | – | O=C(Cn1ccnc1)Nc1cc2cc(-c3cccnc3)ccc2cn1 [Compound 15, 2-(1H-Imidazol-1-yl)-N-(6-(pyridin-3-yl)isoquinolin-3-yl)acetamide] | 0.2 µM | –
16 | – | 0.355 µM | > 10 µM | – | 0.031 µM | CN1CCN(CC(=O)Nc2cc3cc(-c4cncc(F)c4)ccc3cn2)CC1 [Compound 20, N-(6-(5-Fluoropyridin-3-yl)isoquinolin-3-yl)-2-(4-methylpiperazin-1-yl) acetamide] | 0.252 µM | 37.2%
17 | – | 0.298 µM | > 10 µM | 0.009 µM | – | O=C(CN1CCOCC1)Nc1cc2cc(-c3cccnc3)c(F)cc2cn1 [Compound 144, N-(7-Fluoro-6-(pyridin-3-yl)isoquinolin-3-yl)-2-morpholinoacetamide] | 0.051 µM | 22%
18 | – | 0.048 µM | > 10 µM | 0.013 µM | – | CN1CCN(CC(=O)Nc2cc3cc(-c4cccnc4)c(F)cc3cn2)CC1 [Compound 145, N-(7-Fluoro-6-(pyridin-3-yl)isoquinolin-3-yl)-2-(4-methylpiperazin-1-yl) acetamide] | 0.81 µM | 18.8%
19 | – | 0.016 µM | > 10 µM | – | 0.013 µM | [2H]C1([2H])OC([2H])([2H])C([2H])([2H])N(CC(=O)Nc2cc3cc(-c4cccnc4)ccc3cn2)C1([2H])[2H] [Compound 151, 2-(Morpholino-d8)-N-(6-(pyridin-3-yl)isoquinolin-3-yl)acetamide] | 0.009 µM | 24.6%
